Reference: US12331054B2, “Perk inhibiting imidazolopyrazine compounds” (HiberCell, Inc., priority 2019, dated 2025)

Experiments:
[1] = biological target: Recombinant human EIF2AK3 (PERK) catalytic domain (amino acids 536-1116) (Homo sapiens (Human), UniProt Q9NZJ5); test: PERK In Vitro Activity Assay (isolated), TR-FRET kinase assay; details: isolated PERK enzyme, 1.5 μM ATP, read-out: Biochemical IC50
Procedure, shortened: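 IC50 values come from 4-parameter logistic fits of TR-FRET ratios, read after 90 min with 2 nM terbium-labelled phospho-eIF2a antibody following an EDTA stop (10 mM final). The kinase reaction ran 45 min at room temperature, started by adding PERK catalytic domain to 100–200 nM GFP-eIF2a in HEPES pH 7.5 buffer with MgCl2, EGTA and Brij-35.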

[2] = system: eIF2α in HEK293-EGFP-eIF2α cells; test: PERK Cellular Assay (HEK293-EGFP-eIF2α cells, tunicamycin-induced ER stress, TR-FRET); type: cell-based; details: tunicamycin 2 hours
Procedure, shortened: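 After 2 h tunicamycin ([…]) stress following 30 min compound pretreatment at 37 °C, lysed HEK293-EGFP-eIF2α cells were read by TR-FRET. IC50 derived by 4-parameter logistic fitting of percent inhibition, DMSO-normalized, from 10-point 3-fold dilutions.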

Chain of Recombinant human EIF2AK3 (PERK) catalytic domain (amino acids 536-1116) (Q9NZJ5 536-1116): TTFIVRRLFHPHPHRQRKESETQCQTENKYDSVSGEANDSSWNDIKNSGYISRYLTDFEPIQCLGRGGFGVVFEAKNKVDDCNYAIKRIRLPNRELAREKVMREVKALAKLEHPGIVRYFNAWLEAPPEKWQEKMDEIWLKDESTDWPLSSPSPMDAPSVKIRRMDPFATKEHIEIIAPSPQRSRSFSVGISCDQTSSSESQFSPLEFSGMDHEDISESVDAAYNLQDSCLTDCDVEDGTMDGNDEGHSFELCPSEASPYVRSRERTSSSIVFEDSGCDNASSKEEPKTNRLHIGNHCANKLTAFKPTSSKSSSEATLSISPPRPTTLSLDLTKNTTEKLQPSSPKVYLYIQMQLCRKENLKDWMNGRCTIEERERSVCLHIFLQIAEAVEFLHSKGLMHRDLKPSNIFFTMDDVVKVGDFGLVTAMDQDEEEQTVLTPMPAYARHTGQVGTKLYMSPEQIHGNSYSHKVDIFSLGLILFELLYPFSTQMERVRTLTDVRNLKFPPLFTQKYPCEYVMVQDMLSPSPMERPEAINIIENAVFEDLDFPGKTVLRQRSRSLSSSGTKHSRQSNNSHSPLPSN

Row | Compound | IC50 [1] [nM] | IC50 [2] [nM]
1 | [2H]C([2H])([2H])c1nc(-c2ccc(NC(=O)C(O)c3cccc(C(F)(F)F)c3)c(F)c2F)c2c(N)ncc(C(F)(F)F)n12 (stereo not shown) [Example 148, N-[4-[8-amino-3-(trideuteriomethyl)-5-(trifluoromethyl)imidazo[1,5-a]pyrazin-1-yl]-2,3-difluoro-phenyl]-2-hydroxy-2-[3-(trifluoromethyl)phenyl]acetamide] | 1 to 25 | 1 to 25
2 | [2H]C([2H])([2H])c1nc(-c2ccc(NC(=O)C(O)c3cccc(C(F)(F)F)c3)c(F)c2F)c2c(N)ncc(C(F)(F)F)n12 (stereo not shown) [Example 149, N-[4-[8-amino-3-(trideuteriomethyl)-5-(trifluoromethyl)imidazo[1,5-a]pyrazin-1-yl]-2,3-difluoro-phenyl]-2-hydroxy-2-[3-(trifluoromethyl)phenyl]acetamide] | 501 to 1000 | 251 to 500
3 | [2H]C([2H])([2H])c1nc(-c2ccc(NC(=O)C(O)c3cccc(C(F)(F)F)c3)c(F)c2F)c2c(N)nc(C)cn12 (stereo not shown) [Example 150, N-[4-[8-amino-6-methyl-3-(trideuteriomethyl)imidazo[1,5-a]pyrazin-1-yl]-2,3-difluoro-phenyl]-2-hydroxy-2-[3-(trifluoromethyl)phenyl]acetamide] | 1 to 25 | 26 to 50
4 | [2H]C([2H])([2H])c1nc(-c2ccc(NC(=O)C(O)c3cccc(C(F)(F)F)c3)c(F)c2F)c2c(N)nc(C)cn12 (stereo not shown) [Example 151, N-[4-[8-amino-6-methyl-3-(trideuteriomethyl)imidazo[1,5-a]pyrazin-1-yl]-2,3-difluoro-phenyl]-2-hydroxy-2-[3-(trifluoromethyl)phenyl]acetamide] | 51 to 100 | 251 to 500
5 | [2H]C([2H])([2H])c1nc(-c2ccc(NC(=O)C(O)c3cccc(C(F)(F)F)c3)c(F)c2F)c2c(N)ncc(Cl)n12 (stereo not shown) [Example 152, N-[4-[8-amino-5-chloro-3-(trideuteriomethyl)imidazo[1,5-a]pyrazin-1-yl]-2,3-difluoro-phenyl]-2-hydroxy-2-[3-(trifluoromethyl)phenyl]acetamide] | 1 to 25 | 1 to 25
6 | [2H]C([2H])([2H])c1nc(-c2ccc(NC(=O)C(O)c3cccc(C(F)(F)F)c3)c(F)c2F)c2c(N)ncc(Cl)n12 (stereo not shown) [Example 153, N-[4-[8-amino-5-chloro-3-(trideuteriomethyl)imidazo[1,5-a]pyrazin-1-yl]-2,3-difluoro-phenyl]-2-hydroxy-2-[3-(trifluoromethyl)phenyl]acetamide] | 26 to 50 | 101 to 250
7 | [2H]C([2H])([2H])c1nc(-c2ccc(NC(=O)C(O)c3cc(F)cc(C(F)(F)F)c3)c(F)c2F)c2c(N)ncc(C(F)(F)F)n12 (stereo not shown) [Example 162, N-[4-[8-amino-3-(trideuteriomethyl)-5-(trifluoromethyl)imidazo[1,5-a]pyrazin-1-yl]-2,3-difluoro-phenyl]-2-[3-fluoro-5-(trifluoromethyl)phenyl]-2-hydroxy-acetamide] | 1 to 25 | 1 to 25
8 | [2H]C([2H])([2H])c1nc(-c2ccc(NC(=O)C(O)c3cc(F)cc(C(F)(F)F)c3)c(F)c2F)c2c(N)ncc(C(F)(F)F)n12 (stereo not shown) [Example 163, N-[4-[8-amino-3-(trideuteriomethyl)-5-(trifluoromethyl)imidazo[1,5-a]pyrazin-1-yl]-2,3-difluoro-phenyl]-2-[3-fluoro-5-(trifluoromethyl)phenyl]-2-hydroxy-acetamide] | 251 to 500 | 251 to 500
9 | [2H]C([2H])([2H])c1nc(-c2ccc(NC(=O)C(O)c3cc(F)cc(C(F)(F)F)c3)c(F)c2F)c2c(N)ncc(Cl)n12 (stereo not shown) [Example 164, N-[4-[8-amino-5-chloro-3-(trideuteriomethyl)imidazo[1,5-a]pyrazin-1-yl]-2,3-difluoro-phenyl]-2-[3-fluoro-5-(trifluoromethyl)phenyl]-2-hydroxy-acetamide] | 1 to 25 | 1 to 25
10 | [2H]C([2H])([2H])c1nc(-c2ccc(NC(=O)C(O)c3cc(F)cc(C(F)(F)F)c3)c(F)c2F)c2c(N)nc(C)cn12 (stereo not shown) [Example 166, N-[4-[8-amino-6-methyl-3-(trideuteriomethyl)imidazo[1,5-a]pyrazin-1-yl]-2,3-difluoro-phenyl]-2-[3-fluoro-5-(trifluoromethyl)phenyl]-2-hydroxy-acetamide] | 1 to 25 | 1 to 25
11 | [2H]C([2H])([2H])c1nc(-c2ccc(NC(=O)C(O)c3cc(F)cc(C(F)(F)F)c3)c(F)c2F)c2c(N)nc(C)cn12 (stereo not shown) [Example 167, N-[4-[8-amino-6-methyl-3-(trideuteriomethyl)imidazo[1,5-a]pyrazin-1-yl]-2,3-difluoro-phenyl]-2-[3-fluoro-5-(trifluoromethyl)phenyl]-2-hydroxy-acetamide] | 26 to 50 | 101 to 250
12 | Cc1c(-c2nc(C)n3c(C)cnc(N)c23)ccc(NC(=O)C(O)c2cccc(F)c2)c1F (stereo not shown) [Example 168, N-(4-(8-amino-3,5-dimethyl-imidazo[1,5-a]pyrazin-1-yl)-2-fluoro-3-methyl-phenyl)-2-(3-fluorophenyl)-2-hydroxy-acetamide] | 1 to 25 | 251 to 500
13 | Cc1c(-c2nc(C)n3c(C)cnc(N)c23)ccc(NC(=O)C(O)c2cccc(F)c2)c1F (stereo not shown) [Example 169, N-(4-(8-amino-3,5-dimethyl-imidazo[1,5-a]pyrazin-1-yl)-2-fluoro-3-methyl-phenyl)-2-(3-fluorophenyl)-2-hydroxy-acetamide] | 1 to 25 | 1 to 25
14 | [2H]C([2H])([2H])c1nc(-c2ccc(NC(=O)C(O)c3cccc(F)c3)nc2C)c2c(N)nc(C)cn12 (stereo not shown) [Example 170, N-[5-[8-amino-6-methyl-3-(trideuteriomethyl)imidazo[1,5-a]pyrazin-1-yl]-6-methyl-2-pyridyl]-2-(3-fluorophenyl)-2-hydroxy-acetamide] | 1 to 25 | 101 to 250

More lines, main results first:

Row | IC50 [1] [nM] | Compound | IC50 [2] [nM]
15 | 1 to 25 | [2H]C([2H])([2H])c1nc(-c2ccc(NC(=O)C(O)c3cc(F)cc(F)c3)c(F)c2F)c2c(N)ncc(C)n12 (stereo not shown) [Example 154, N-[4-[8-amino-5-methyl-3-(trideuteriomethyl)imidazo[1,5-a]pyrazin-1-yl]-2,3-difluoro-phenyl]-2-(3,5-difluorophenyl)-2-hydroxy-acetamide] | 1 to 25
16 | 1 to 25 | [2H]C([2H])([2H])c1nc(-c2ccc(NC(=O)C(O)c3cc(F)cc(F)c3)c(F)c2F)c2c(N)ncc(C)n12 (stereo not shown) [Example 155, N-[4-[8-amino-5-methyl-3-(trideuteriomethyl)imidazo[1,5-a]pyrazin-1-yl]-2,3-difluoro-phenyl]-2-(3,5-difluorophenyl)-2-hydroxy-acetamide] | 51 to 100
17 | 1 to 25 | [2H]C([2H])([2H])c1nc(-c2ccc(NC(=O)C(O)c3cc(F)cc(F)c3)c(F)c2F)c2c(N)ncc(Cl)n12 (stereo not shown) [Example 156, N-[4-[8-amino-5-chloro-3-(trideuteriomethyl)imidazo[1,5-a]pyrazin-1-yl]-2,3-difluoro-phenyl]-2-(3,5-difluorophenyl)-2-hydroxy-acetamide] | 1 to 25
18 | 1 to 25 | [2H]C([2H])([2H])c1nc(-c2ccc(NC(=O)C(O)c3cc(F)cc(F)c3)c(F)c2F)c2c(N)ncc(Cl)n12 (stereo not shown) [Example 157, N-[4-[8-amino-5-chloro-3-(trideuteriomethyl)imidazo[1,5-a]pyrazin-1-yl]-2,3-difluoro-phenyl]-2-(3,5-difluorophenyl)-2-hydroxy-acetamide] | 51 to 100
19 | 1 to 25 | [2H]C([2H])([2H])c1nc(-c2ccc(NC(=O)C(O)c3cc(F)cc(F)c3)c(F)c2F)c2c(N)ncc(C(F)(F)F)n12 (stereo not shown) [Example 158, N-[4-[8-amino-3-(trideuteriomethyl)-5-(trifluoromethyl)imidazo[1,5-a]pyrazin-1-yl]-2,3-difluoro-phenyl]-2-(3,5-difluorophenyl)-2-hydroxy-acetamide] | 1 to 25
20 | 51 to 100 | [2H]C([2H])([2H])c1nc(-c2ccc(NC(=O)C(O)c3cc(F)cc(F)c3)c(F)c2F)c2c(N)ncc(C(F)(F)F)n12 (stereo not shown) [Example 159, N-[4-[8-amino-3-(trideuteriomethyl)-5-(trifluoromethyl)imidazo[1,5-a]pyrazin-1-yl]-2,3-difluoro-phenyl]-2-(3,5-difluorophenyl)-2-hydroxy-acetamide] | 251 to 500
21 | 1 to 25 | [2H]C([2H])([2H])c1nc(-c2ccc(NC(=O)C(O)c3cc(F)cc(C(F)(F)F)c3)c(F)c2F)c2c(N)ncc(C)n12 (stereo not shown) [Example 160, N-[4-[8-amino-5-methyl-3-(trideuteriomethyl)imidazo[1,5-a]pyrazin-1-yl]-2,3-difluoro-phenyl]-2-[3-fluoro-5-(trifluoromethyl)phenyl]-2-hydroxy-acetamide] | 1 to 25
22 | 1 to 25 | [2H]C([2H])([2H])c1nc(-c2ccc(NC(=O)C(O)c3cc(F)cc(C(F)(F)F)c3)c(F)c2F)c2c(N)ncc(C)n12 (stereo not shown) [Example 161, N-[4-[8-amino-5-methyl-3-(trideuteriomethyl)imidazo[1,5-a]pyrazin-1-yl]-2,3-difluoro-phenyl]-2-[3-fluoro-5-(trifluoromethyl)phenyl]-2-hydroxy-acetamide] | 101 to 250
23 | 26 to 50 | [2H]C([2H])([2H])c1nc(-c2ccc(NC(=O)C(O)c3cc(F)cc(C(F)(F)F)c3)c(F)c2F)c2c(N)ncc(Cl)n12 (stereo not shown) [Example 165, N-[4-[8-amino-5-chloro-3-(trideuteriomethyl)imidazo[1,5-a]pyrazin-1-yl]-2,3-difluoro-phenyl]-2-[3-fluoro-5-(trifluoromethyl)phenyl]-2-hydroxy-acetamide] | 101 to 250
